Assay results as given in US12552825B2 (Zikani Therapeutics, Inc., priority 2019, dated 2026).
Converted amounts (≈) assume the structure as drawn.

Tests used:
Assay type in all cases: cell-based
S. aureus MP-12 = assay: microbe, parasite or virus in culture; details: Staphylococcus aureus, MP12, read-out: MIC S. aureus MP-12
E. coli MP-4 = assay: MIC determination by CLSI broth dilution, E. coli MP-4; details: Escherichia coli, MP4, CLSI broth dilution; strain MP-4
K. pneumoniae MP-546 = assay: MIC determination by CLSI broth dilution, K. pneumoniae MP-546; details: Klebsiella pneumoniae, MP546, CLSI broth dilution; strain MP-546
P. aeruginosa MP-3 = assay: MIC determination by CLSI broth dilution, P. aeruginosa MP-3; details: Pseudomonas aeruginosa, MP3, strain MP-3
A. baumannii MP-15 = assay: MIC determination by CLSI broth dilution, A. baumannii MP-15; details: Acinetobacter baumannii, MP15, strain MP-15, read-out: MIC A. baumanii MP-15

Row | SMILES | MIC (S. aureus MP-12) [µg/mL] | MIC (E. coli MP-4) [µg/mL] | MIC (K. pneumoniae MP-546) [µg/mL] | MIC (P. aeruginosa MP-3) [µg/mL] | MIC (A. baumannii MP-15) [µg/mL]
1 | CO[C@]1(C)C[C@@H](C)CN(C)[C@@H](CC2CCN(CC(C)C)CC2)COC(=O)C(C)(C)C(=O)[C@H](C)[C@H]1O[C@@H]1O[C@H](C)C[C@H](N(C)C)[C@H]1O [Compound 67] | > 32 | 4 to 32 (≈ 6.12 to 48.9 µM) | 4 to 32 (≈ 6.12 to 48.9 µM) | > 32 | > 32
2 | CO[C@]1(C)C[C@@H](C)CN(C)[C@@H](CC2CCN(C(C)C)CC2)COC(=O)C(C)(C)C(=O)[C@H](C)[C@H]1O[C@@H]1O[C@H](C)C[C@H](N(C)C)[C@H]1O [Compound 68] | > 32 | 4 to 32 (≈ 6.25 to 50 µM) | 4 to 32 (≈ 6.25 to 50 µM) | > 32 | > 32
3 | CO[C@]1(C)C[C@@H](C)CN(C)[C@@H](CC2CCN(C3CC3)CC2)COC(=O)C(C)(C)C(=O)[C@H](C)[C@H]1O[C@@H]1O[C@H](C)C[C@H](N(C)C)[C@H]1O [Compound 69] | 4 to 32 (≈ 6.27 to 50.2 µM) | 4 to 32 (≈ 6.27 to 50.2 µM) | 4 to 32 (≈ 6.27 to 50.2 µM) | > 32 | > 32
4 | CCCCCCCN1CCC(C[C@H]2COC(=O)C(C)(C)C(=O)[C@H](C)[C@@H](O[C@@H]3O[C@H](C)C[C@H](N(C)C)[C@H]3O)[C@](C)(OC)C[C@@H](C)CN2C)CC1 [Compound 70] | > 32 | < 4 | 4 to 32 (≈ 5.75 to 46 µM) | > 32 | > 32
5 | CO[C@]1(C)C[C@@H](C)CN(C)[C@@H](CC2CCN(CC[C@@H](C)CCC=C(C)C)CC2)COC(=O)C(C)(C)C(=O)[C@H](C)[C@H]1O[C@@H]1O[C@H](C)C[C@H](N(C)C)[C@H]1O [Compound 71] | > 32 | 4 to 32 (≈ 5.43 to 43.5 µM) | > 32 | > 32 | > 32
6 | CO[C@]1(C)C[C@@H](C)CN(C)[C@@H](CC2CCN(CC3CCCCC3)CC2)COC(=O)C(C)(C)C(=O)[C@H](C)[C@H]1O[C@@H]1O[C@H](C)C[C@H](N(C)C)[C@H]1O [Compound 72] | > 32 | < 4 | 4 to 32 (≈ 5.76 to 46.1 µM) | > 32 | > 32
7 | CO[C@]1(C)C[C@@H](C)CN(C)[C@@H](CN2CCN(S(C)(=O)=O)CC2)[C@H](C)OC(=O)C(C)(C)C(=O)[C@H](C)[C@H]1O[C@@H]1O[C@H](C)C[C@H](N(C)C)[C@H]1O [Compound 80, (2S,3S,6R,8R,9R,10R)-9-(((2S,3R,4S,6R)-4-(dimethylamino)-3-hydroxy-6-methyltetrahydro-2H-pyran-2-yl)oxy)-8-methoxy-2,4,6,8,10,12,12-heptamethyl-3-((4-(methylsulfonyl)piperazin-1-yl)methyl)-1-oxa-4-azacyclotridecane-11,13-dione] | 4 to 32 (≈ 5.79 to 46.3 µM) | > 32 | > 32 | > 32 | > 32
8 | CO[C@]1(C)C[C@@H](C)CN(C)[C@@H](CN2CCN(S(=O)(=O)c3cn(C)cn3)CC2)[C@H](C)OC(=O)C(C)(C)C(=O)[C@H](C)[C@H]1O[C@@H]1O[C@H](C)C[C@H](N(C)C)[C@H]1O [Compound 81, (2S,3S,6R,8R,9R,10R)-9-(((2S,3R,4S,6R)-4-(dimethylamino)-3-hydroxy-6-methyltetrahydro-2H-pyran-2-yl)oxy)-8-methoxy-2,4,6,8,10,12,12-heptamethyl-3-((4-((1-methyl-1H-imidazol-4-yl)sulfonyl)piperazin-1-yl)methyl)-1-oxa-4-azacyclotridecane-11,13-dione] | 4 to 32 (≈ 5.28 to 42.3 µM) | > 32 | > 32 | > 32 | > 32
9 | CO[C@]1(C)C[C@@H](C)CN(C)[C@@H](CCCN2CCCCC2)COC(=O)C(C)(C)C(=O)[C@H](C)[C@H]1O[C@@H]1O[C@H](C)C[C@H](N(C)C)[C@H]1O [Compound 83, (3S,6R,8R,9R,10R)-9-(((2S,3R,4S,6R)-4-(dimethylamino)-3-hydroxy-6-methyltetrahydro-2H-pyran-2-yl)oxy)-8-methoxy-4,6,8,10,12,12-hexamethyl-3-(3-(piperidin-1-yl)propyl)-1-oxa-4-azacyclotridecane-11,13-dione] | 4 to 32 (≈ 6.39 to 51.1 µM) | < 4 | < 4 | > 32 | > 32
10 | CO[C@]1(C)C[C@@H](C)CN(C)[C@@H](C(=O)N2CCN(C(C)C)CC2)[C@H](C)OC(=O)C(C)(C)C(=O)[C@H](C)[C@H]1O[C@@H]1O[C@H](C)C[C@H](N(C)C)[C@H]1O [Compound 91, (2S,3R,6R,8R,9R,10R)-9-(((2S,3R,4S,6R)-4-(dimethylamino)-3-hydroxy-6-methyltetrahydro-2H-pyran-2-yl)oxy)-3-(4-isopropylpiperazine-1-carbonyl)-8-methoxy-2,4,6,8,10,12,12-heptamethyl-1-oxa-4-azacyclotridecane-11,13-dione] | > 32 | > 32 | > 32 | > 32 | > 32
11 | CO[C@]1(C)C[C@@H](C)CN(C)[C@@H](C(=O)N2CCN(C)CC2)[C@H](C)OC(=O)C(C)(C)C(=O)[C@H](C)[C@H]1O[C@@H]1O[C@H](C)C[C@H](N(C)C)[C@H]1O [Compound 97, (2S,3R,6R,8R,9R,10R)-9-(((2S,3R,4S,6R)-4-(dimethylamino)-3-hydroxy-6-methyltetrahydro-2H-pyran-2-yl)oxy)-8-methoxy-2,4,6,8,10,12,12-heptamethyl-3-(4-methylpiperazine-1-carbonyl)-1-oxa-4-azacyclotridecane-11,13-dione] | > 32 | > 32 | > 32 | > 32 | > 32
12 | CO[C@]1(C)C[C@@H](C)CN(C)[C@@H](CN(C)Cc2nccn2C)COC(=O)C(C)(C)C(=O)[C@H](C)[C@H]1O[C@@H]1O[C@H](C)C[C@H](N(C)C)[C@H]1O [Compound 104, (3S,6R,8R,9R,10R)-9-(((2S,3R,4S,6R)-4-(Dimethylamino)-3-hydroxy-6-methyltetrahydro-2H-pyran-2-yl)oxy)-8-methoxy-4,6,8,10,12,12-hexamethyl-3-((methyl((1-methyl-11H-imidazol-2-yl)methyl)amino)methyl)-1-oxa-4-azacyclotridecane-11,13-dione] | > 32 | 4 to 32 (≈ 6.27 to 50.2 µM) | > 32 | > 32 | > 32
13 | CO[C@]1(C)C[C@@H](C)CN(C)[C@@H](CN2CCN(C(=O)C(F)(F)F)CC2)[C@H](C)OC(=O)C(C)(C)C(=O)[C@H](C)[C@H]1O[C@@H]1O[C@H](C)C[C@H](N(C)C)[C@H]1O [Compound 109, (2S,3S,6R,8R,9R,10R)-9-(((2S,3R,4S,6R)-4-(dimethylamino)-3-hydroxy-6-methyltetrahydro-2H-pyran-2-yl)oxy)-8-methoxy-2,4,6,8,10,12,12-heptamethyl-3-((4-(2,2,2-trifluoroacetyl)piperazin-1-yl)methyl)-1-oxa-4-azacyclotridecane-11,13-dione] | 4 to 32 (≈ 5.64 to 45.1 µM) | 4 to 32 (≈ 5.64 to 45.1 µM) | > 32 | > 32 | > 32
14 | CO[C@]1(C)C[C@@H](C)CN(C)[C@@H](CN2CCN(C(=O)C(C)(C)C)CC2)[C@H](C)OC(=O)C(C)(C)C(=O)[C@H](C)[C@H]1O[C@@H]1O[C@H](C)C[C@H](N(C)C)[C@H]1O [Compound 114, (2S,3S,6R,8R,9R,10R)-9-(((2S,3R,4S,6R)-4-(dimethylamino)-3-hydroxy-6-methyltetrahydro-2H-pyran-2-yl)oxy)-8-methoxy-2,4,6,8,10,12,12-heptamethyl-3-((4-pivaloylpiperazin-1-yl)methyl)-1-oxa-4-azacyclotridecane-11,13-dione] | 4 to 32 (≈ 5.74 to 45.9 µM) | > 32 | > 32 | > 32 | > 32
15 | CO[C@]1(C)C[C@@H](C)CN(C)[C@@H](C(=O)N2CCN(CC(F)(F)F)CC2)[C@H](C)OC(=O)C(C)(C)C(=O)[C@H](C)[C@H]1O[C@@H]1O[C@H](C)C[C@H](N(C)C)[C@H]1O [Compound 130, (2S,3R,6R,8R,9R,10R)-9-(((2S,3R,4S,6R)-4-(dimethylamino)-3-hydroxy-6-methyltetrahydro-2H-pyran-2-yl)oxy)-8-methoxy-2,4,6,8,10,12,12-heptamethyl-3-(4-(2,2,2-trifluoroethyl)piperazine-1-carbonyl)-1-oxa-4-azacyclotridecane-11,13-dione] | > 32 | > 32 | > 32 | > 32 | > 32
16 | CCC(=O)N1CCN(C[C@H]2[C@H](C)OC(=O)C(C)(C)C(=O)[C@H](C)[C@@H](O[C@@H]3O[C@H](C)C[C@H](N(C)C)[C@H]3O)[C@](C)(OC)C[C@@H](C)CN2C)CC1 [Compound 133, (2S,3S,6R,8R,9R,10R)-9-(((2S,3R,4S,6R)-4-(dimethylamino)-3-hydroxy-6-methyltetrahydro-2H-pyran-2-yl)oxy)-8-methoxy-2,4,6,8,10,12,12-heptamethyl-3-((4-propionylpiperazin-1-yl)methyl)-1-oxa-4-azacyclotridecane-11,13-dione] | 4 to 32 (≈ 5.98 to 47.8 µM) | > 32 | > 32 | > 32 | > 32
17 | CO[C@]1(C)C[C@@H](C)CN(C)[C@@H](CN2CCN(C(C)=O)CC2)[C@H](C)OC(=O)C(C)(C)C(=O)[C@H](C)[C@H]1O[C@@H]1O[C@H](C)C[C@H](N(C)C)[C@H]1O [Compound 135, (2S,3S,6R,8R,9R,10R)-3-((4-acetylpiperazin-1-yl)methyl)-9-(((2S,3R,4S,6R)-4-(dimethylamino)-3-hydroxy-6-methyltetrahydro-2H-pyran-2-yl)oxy)-8-methoxy-2,4,6,8,10,12,12-heptamethyl-1-oxa-4-azacyclotridecane-11,13-dione] | 4 to 32 (≈ 6.11 to 48.9 µM) | > 32 | > 32 | > 32 | > 32
